Results on 1 compound are retold here after ChEMBL document CHEMBL1154879, “Discovery of (thienopyrimidin-2-yl)aminopyrimidines as potent, selective, and orally available pan-PI3-kinase and dual pan-PI3-kinase/mTOR inhibitors for the treatment of cancer” (J Med Chem, 2010).

Data set [1] deals with Phosphatidylinositol 3-kinase catalytic subunit type 3 (Homo sapiens) (UniProt Q8NEB9). Description: Inhibition of VPS34 at 1 uM.
Data set [2] concerns the target Phosphatidylinositol 4-kinase beta (Homo sapiens) (UniProt Q9UBF8). Nature of the data set: Inhibition of PI4Kbeta at 1 uM.
The test system of data set [3] is Mus musculus. Description: Inhibition of PI3K/Akt/mTOR pathway signaling in PI3Kalpha mutant expressing human MCF7.1 cells xenografted nu/nu mouse assessed as inhibition of Akt Ser473 phosphorylation at 6.25 mg/kg, po qd for 21 days measured 1 hr after last administered dose on day 21 by electrochemiluminescence assay. It is filed as functional. (In xenograft studies the graft and the host belong to different species.)

The test system of data set [4] is Mus musculus. Description: Inhibition of PI3K/Akt/mTOR pathway signaling in PI3Kalpha mutant expressing human MCF7.1 cells xenografted nu/nu mouse assessed as inhibition of Akt Ser473 phosphorylation at 12.5 mg/kg, po qd for 21 days measured 1 hr after last administered dose on day 21 by electrochemiluminescence assay. It is filed as functional.
Data set [5] relates to Mus musculus. Description: Inhibition of PI3K/Akt/mTOR pathway signaling in PI3Kalpha mutant expressing human MCF7.1 cells xenografted nu/nu mouse assessed as inhibition of Akt Ser473 phosphorylation at 12.5 mg/kg, po qd for 21 days measured 4 hrs after last administered dose on day 21 by electrochemiluminescence assay. It is filed as functional.
Data set [6] concerns Mus musculus. Description: Inhibition of PI3K/Akt/mTOR pathway signaling in PI3Kalpha mutant expressing human MCF7.1 cells xenografted nu/nu mouse assessed as inhibition of Pras40 Thr246 phosphorylation at 12.5 mg/kg, po qd for 21 days measured 1 hr after last administered dose on day 21 by ELISA. It is filed as functional.
The next data set deals with MCF7.1. Description: Antitumor activity against human MCF7.1 cells expressing PI3Kalpha mutant xenografted in nu/nu mouse assessed as inhibition of tumor growth at 25 mg/kg, po qd for 21 days. It is filed as functional, organism-based. Also noted: dose 25 mg/kg.
For data set [7], the system named is Mus musculus. Nature of the data set: Toxicity in human MCF7.1 cells expressing PI3Kalpha mutant xenografted nu/nu mouse assessed as body weight loss at 12.5 mg/kg, po qd for 21 days. Also noted: dose 12.5 mg/kg, route oral. It counts as organism-based. The note with it: in vivo, 504 h.
The subject of data set [8] is Mus musculus. Nature of the data set: Toxicity in human MCF7.1 cells expressing PI3Kalpha mutant xenografted nu/nu mouse assessed as body weight loss at 50 mg/kg, po qd for 21 days. It is filed as organism-based. Also noted: dose 50 mg/kg, route oral. The note with it: in vivo, 504 h.
The subject of data set [9] is Mus musculus. Nature of the data set: Inhibition of PI3K/Akt/mTOR pathway signaling in PI3Kalpha mutant expressing human MCF7.1 cells xenografted nu/nu mouse assessed as inhibition of S6RP Ser235/236 phosphorylation at 6.25 mg/kg, po qd for 21 days measured 1 hr after last administered dose on day 21 by electrochemiluminescence assay. It counts as functional.
Data set [10] relates to Mus musculus. Description: Inhibition of PI3K/Akt/mTOR pathway signaling in PI3Kalpha mutant expressing human MCF7.1 cells xenografted nu/nu mouse assessed as inhibition of S6RP Ser235/236 phosphorylation at 6.25 mg/kg, po qd for 21 days measured 4 hrs after last administered dose on day 21 by electrochemiluminescence assay. It counts as functional.
Data set [11] has as its system Mus musculus. Description: Inhibition of PI3K/Akt/mTOR pathway signaling in PI3Kalpha mutant expressing human MCF7.1 cells xenografted nu/nu mouse assessed as inhibition of S6RP Ser235/236 phosphorylation at 12.5 mg/kg, po qd for 21 days measured 4 hrs after last administered dose on day 21 by electrochemiluminescence assay. It counts as functional.
Data set [12] concerns Mus musculus. Description: Inhibition of PI3K/Akt/mTOR pathway signaling in PI3Kalpha mutant expressing human MCF7.1 cells xenografted nu/nu mouse assessed as inhibition of S6RP Ser235/236 phosphorylation at 25 mg/kg, po qd for 21 days measured 1 hr after last administered dose on day 21 by electrochemiluminescence assay. It is filed as functional.
The test system of data set [13] is Mus musculus. Nature of the data set: Inhibition of PI3K/Akt/mTOR pathway signaling in PI3Kalpha mutant expressing human MCF7.1 cells xenografted nu/nu mouse assessed as inhibition of S6RP Ser235/236 phosphorylation at 25 mg/kg, po qd for 21 days measured 4 hrs after last administered dose on day 21 by electrochemiluminescence assay. It is filed as functional.

A short description of data set [14]: Half life in nu/nu mouse at 5 mg/kg, po. The note with it: in vivo. It is filed as ADME, organism-based. Also noted: dose 5 mg/kg, route oral.
The target in data set [15] is Mitogen-activated protein kinase kinase kinase 9 (Homo sapiens, UniProt P80192). Description: Inhibition of MLK1.
Chain of Mitogen-activated protein kinase kinase kinase 9 (P80192 whole entry): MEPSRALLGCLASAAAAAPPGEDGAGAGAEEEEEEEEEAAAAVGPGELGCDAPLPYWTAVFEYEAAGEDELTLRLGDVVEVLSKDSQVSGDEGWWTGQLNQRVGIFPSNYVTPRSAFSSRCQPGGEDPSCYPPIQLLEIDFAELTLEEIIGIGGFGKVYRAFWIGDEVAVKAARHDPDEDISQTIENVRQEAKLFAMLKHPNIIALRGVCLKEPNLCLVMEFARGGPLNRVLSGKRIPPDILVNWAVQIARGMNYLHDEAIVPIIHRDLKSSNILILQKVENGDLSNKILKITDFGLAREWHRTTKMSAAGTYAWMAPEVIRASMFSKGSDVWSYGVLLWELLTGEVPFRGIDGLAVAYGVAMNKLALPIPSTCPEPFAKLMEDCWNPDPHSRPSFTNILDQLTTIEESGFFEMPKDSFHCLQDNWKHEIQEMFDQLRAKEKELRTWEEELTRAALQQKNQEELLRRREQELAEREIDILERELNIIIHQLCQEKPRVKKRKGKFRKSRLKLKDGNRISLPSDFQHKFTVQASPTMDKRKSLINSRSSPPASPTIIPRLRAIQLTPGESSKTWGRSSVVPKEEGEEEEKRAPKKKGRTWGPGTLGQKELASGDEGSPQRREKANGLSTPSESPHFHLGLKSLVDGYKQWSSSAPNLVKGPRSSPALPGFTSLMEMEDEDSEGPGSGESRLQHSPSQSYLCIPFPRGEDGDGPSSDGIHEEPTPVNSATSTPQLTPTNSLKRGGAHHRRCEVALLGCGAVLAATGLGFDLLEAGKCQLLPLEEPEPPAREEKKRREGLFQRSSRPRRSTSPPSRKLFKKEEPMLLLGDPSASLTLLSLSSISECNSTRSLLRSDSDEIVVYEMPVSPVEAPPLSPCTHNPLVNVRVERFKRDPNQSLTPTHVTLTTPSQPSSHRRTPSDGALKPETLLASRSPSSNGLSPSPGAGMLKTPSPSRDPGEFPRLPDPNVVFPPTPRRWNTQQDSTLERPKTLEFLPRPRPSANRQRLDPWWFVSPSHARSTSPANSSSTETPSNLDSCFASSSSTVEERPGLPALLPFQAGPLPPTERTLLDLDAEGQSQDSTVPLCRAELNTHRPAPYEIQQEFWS
Data set [16] is described as follows: Antiproliferative activity against human MCF7.1 cells expressing PI3Kalpha mutant after 3 to 4 days. It counts as functional, cell-based.
For a further data set, the system named is PC-3. Description: Antiproliferative activity against human PC3 cells deficient in PTEN in after 3 to 4 days. It counts as functional, cell-based.
Data set [17] in a line: Clearance in nu/nu mouse at 1 mg/kg, iv. It counts as ADME, organism-based. Also noted: dose 1 mg/kg, route intravenous. The note with it: in vivo.
A short description of data set [18]: Volume of distribution at steady state in nu/nu mouse at 1 mg/kg, iv. It is filed as ADME, organism-based. The note with it: in vivo, read-out: Vdss. Also noted: dose 1 mg/kg, route intravenous.
Data set [19] is described as follows: Oral bioavailability in nu/nu mouse at 5 mg/kg, po. It counts as ADME, organism-based. The note with it: in vivo.
The target in data set [20] is Phosphatidylinositol 4,5-bisphosphate 3-kinase catalytic subunit alpha isoform (Homo sapiens, UniProt P42336).
Chain of Phosphatidylinositol 4,5-bisphosphate 3-kinase catalytic subunit alpha isoform (P42336 whole entry, canonical isoform): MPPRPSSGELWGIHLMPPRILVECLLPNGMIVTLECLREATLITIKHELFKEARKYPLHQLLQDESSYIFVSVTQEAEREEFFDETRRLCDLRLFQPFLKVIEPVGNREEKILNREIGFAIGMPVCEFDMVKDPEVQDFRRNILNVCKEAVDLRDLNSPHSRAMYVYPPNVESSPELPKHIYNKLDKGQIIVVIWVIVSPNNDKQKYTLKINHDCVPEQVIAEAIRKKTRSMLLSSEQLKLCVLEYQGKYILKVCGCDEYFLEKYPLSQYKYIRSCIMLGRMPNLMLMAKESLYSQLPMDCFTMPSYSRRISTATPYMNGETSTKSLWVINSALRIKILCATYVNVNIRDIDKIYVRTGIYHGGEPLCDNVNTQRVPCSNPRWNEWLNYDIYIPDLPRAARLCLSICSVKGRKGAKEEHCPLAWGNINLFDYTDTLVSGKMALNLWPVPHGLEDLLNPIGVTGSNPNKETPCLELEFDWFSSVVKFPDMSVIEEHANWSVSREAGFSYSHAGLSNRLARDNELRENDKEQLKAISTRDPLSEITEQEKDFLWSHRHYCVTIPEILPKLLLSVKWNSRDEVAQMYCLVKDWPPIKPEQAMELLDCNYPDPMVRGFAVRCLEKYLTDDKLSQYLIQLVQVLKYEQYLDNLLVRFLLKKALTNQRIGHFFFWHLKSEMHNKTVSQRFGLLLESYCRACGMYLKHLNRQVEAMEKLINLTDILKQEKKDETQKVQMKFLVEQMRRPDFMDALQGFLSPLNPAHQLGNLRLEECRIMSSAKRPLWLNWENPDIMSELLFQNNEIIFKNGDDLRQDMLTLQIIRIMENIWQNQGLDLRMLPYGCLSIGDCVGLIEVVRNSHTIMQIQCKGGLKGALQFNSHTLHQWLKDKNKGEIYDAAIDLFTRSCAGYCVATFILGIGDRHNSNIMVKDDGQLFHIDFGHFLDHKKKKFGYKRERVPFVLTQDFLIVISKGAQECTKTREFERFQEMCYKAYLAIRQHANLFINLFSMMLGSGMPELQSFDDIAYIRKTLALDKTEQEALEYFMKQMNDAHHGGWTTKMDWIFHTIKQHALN
The target of data set [21] is Phosphatidylinositol 4,5-bisphosphate 3-kinase catalytic subunit gamma isoform (Homo sapiens, UniProt P48736).
Chain of Phosphatidylinositol 4,5-bisphosphate 3-kinase catalytic subunit gamma isoform (P48736 whole entry, canonical isoform): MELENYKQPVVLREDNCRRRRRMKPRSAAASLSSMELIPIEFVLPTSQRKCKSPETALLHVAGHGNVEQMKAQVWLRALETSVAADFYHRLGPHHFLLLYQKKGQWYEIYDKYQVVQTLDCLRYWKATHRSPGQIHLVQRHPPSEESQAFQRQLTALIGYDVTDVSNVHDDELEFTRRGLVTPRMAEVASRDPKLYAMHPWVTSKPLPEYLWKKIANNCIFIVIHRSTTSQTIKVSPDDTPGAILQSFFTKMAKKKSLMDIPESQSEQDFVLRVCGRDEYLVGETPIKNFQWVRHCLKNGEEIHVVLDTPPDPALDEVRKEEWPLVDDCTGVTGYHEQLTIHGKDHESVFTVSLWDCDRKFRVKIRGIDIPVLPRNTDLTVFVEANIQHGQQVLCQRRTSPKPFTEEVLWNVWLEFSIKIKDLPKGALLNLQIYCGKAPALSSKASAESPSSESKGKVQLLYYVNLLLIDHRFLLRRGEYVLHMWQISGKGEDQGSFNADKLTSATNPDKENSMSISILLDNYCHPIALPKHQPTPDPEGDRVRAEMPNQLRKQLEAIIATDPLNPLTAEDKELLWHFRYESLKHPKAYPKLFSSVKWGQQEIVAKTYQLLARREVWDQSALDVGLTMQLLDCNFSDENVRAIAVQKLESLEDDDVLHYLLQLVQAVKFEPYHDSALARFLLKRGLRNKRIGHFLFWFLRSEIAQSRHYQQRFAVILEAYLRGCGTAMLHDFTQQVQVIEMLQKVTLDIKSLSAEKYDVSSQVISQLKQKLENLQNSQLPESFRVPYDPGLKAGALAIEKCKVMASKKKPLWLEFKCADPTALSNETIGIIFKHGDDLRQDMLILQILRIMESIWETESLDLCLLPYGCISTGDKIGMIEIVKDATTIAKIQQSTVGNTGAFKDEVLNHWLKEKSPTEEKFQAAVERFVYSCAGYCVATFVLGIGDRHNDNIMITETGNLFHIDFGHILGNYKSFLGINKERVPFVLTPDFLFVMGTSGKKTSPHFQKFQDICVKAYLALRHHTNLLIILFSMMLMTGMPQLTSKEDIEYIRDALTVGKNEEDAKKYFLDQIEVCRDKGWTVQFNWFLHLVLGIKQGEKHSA

pIC50: −log10 of the molar value. Calls of active or inactive are those of the source. The calls are words filed in the database; no cut-off is given here.

Chain of Phosphatidylinositol 3-kinase catalytic subunit type 3 (Homo sapiens) (Q8NEB9 whole entry): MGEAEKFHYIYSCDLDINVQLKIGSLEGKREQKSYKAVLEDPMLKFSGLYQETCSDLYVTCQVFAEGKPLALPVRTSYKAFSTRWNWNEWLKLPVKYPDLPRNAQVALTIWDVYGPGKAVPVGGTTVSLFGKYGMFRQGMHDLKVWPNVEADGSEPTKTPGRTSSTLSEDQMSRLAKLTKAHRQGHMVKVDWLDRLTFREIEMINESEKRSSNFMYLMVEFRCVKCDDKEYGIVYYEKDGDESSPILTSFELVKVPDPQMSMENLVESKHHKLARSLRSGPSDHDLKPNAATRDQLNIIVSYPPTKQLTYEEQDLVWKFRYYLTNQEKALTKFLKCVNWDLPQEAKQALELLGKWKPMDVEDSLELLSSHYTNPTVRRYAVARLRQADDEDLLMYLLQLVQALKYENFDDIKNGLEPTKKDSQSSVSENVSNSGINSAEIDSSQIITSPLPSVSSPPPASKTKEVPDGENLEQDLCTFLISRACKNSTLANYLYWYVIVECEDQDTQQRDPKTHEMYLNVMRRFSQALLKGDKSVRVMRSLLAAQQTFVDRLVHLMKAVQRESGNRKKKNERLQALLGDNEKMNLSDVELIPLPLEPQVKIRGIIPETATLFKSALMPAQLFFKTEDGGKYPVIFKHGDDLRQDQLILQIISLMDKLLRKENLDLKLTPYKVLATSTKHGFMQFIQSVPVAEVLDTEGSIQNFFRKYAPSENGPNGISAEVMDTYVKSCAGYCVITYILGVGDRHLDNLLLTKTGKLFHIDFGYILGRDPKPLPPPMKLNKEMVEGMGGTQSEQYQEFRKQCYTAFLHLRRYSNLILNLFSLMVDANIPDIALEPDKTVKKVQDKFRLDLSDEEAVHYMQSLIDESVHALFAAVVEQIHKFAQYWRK
Chain of Phosphatidylinositol 4-kinase beta (Homo sapiens) (Q9UBF8 2-816 limits assumed): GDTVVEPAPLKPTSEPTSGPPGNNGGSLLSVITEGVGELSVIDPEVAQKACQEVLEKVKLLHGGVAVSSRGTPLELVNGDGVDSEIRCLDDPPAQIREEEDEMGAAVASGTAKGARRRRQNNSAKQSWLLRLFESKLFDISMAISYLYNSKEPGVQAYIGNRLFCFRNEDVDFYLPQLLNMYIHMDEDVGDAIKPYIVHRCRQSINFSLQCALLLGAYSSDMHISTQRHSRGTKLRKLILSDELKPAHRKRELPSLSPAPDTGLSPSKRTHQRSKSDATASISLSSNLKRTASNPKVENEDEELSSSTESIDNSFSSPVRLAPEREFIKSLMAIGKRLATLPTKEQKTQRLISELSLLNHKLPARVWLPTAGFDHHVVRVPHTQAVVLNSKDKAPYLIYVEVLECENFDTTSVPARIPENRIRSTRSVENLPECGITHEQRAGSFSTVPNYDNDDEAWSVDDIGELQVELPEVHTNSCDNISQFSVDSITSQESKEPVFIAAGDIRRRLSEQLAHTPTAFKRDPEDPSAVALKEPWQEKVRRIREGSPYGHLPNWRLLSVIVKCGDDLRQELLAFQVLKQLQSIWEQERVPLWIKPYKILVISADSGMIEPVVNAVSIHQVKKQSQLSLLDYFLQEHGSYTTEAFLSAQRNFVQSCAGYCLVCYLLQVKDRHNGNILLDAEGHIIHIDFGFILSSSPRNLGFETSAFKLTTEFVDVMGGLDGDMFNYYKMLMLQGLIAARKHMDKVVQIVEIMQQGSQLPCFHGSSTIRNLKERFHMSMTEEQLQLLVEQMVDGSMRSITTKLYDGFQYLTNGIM

For the compound `Cc1nc(N)ncc1-c1nc(N2CCOCC2)c2sc(C(C)(C)O)cc2n1`, the inhibition result in [1] and in data set [2] was “inactive” in each case. Also, the inhibition in vivo at 6.25 mg/kg came out at 81% in the data set with Mus musculus [3], 70% with Mus musculus [9] and 51% in the data set with Mus musculus [10]. Besides, the inhibition in vivo at 12.5 mg/kg in the data set on Mus musculus [4] came to 83%; in the data set on Mus musculus [5], 48%; with Mus musculus [6], 100%; in the data set on Mus musculus [11], 50%. Besides, the result in the data set with MCF7.1 was Active. The Activity result in the data set with Mus musculus [7] and in the data set on Mus musculus [8] was “Non-toxic” throughout. For the same compound, the inhibition in vivo at 25 mg/kg came out at 74% in the data set on Mus musculus [12] and 63% in the data set with Mus musculus [13]. Moreover, in data set [14], the half-life is 4.6 h. Moreover, the pIC50 in data set [15] is less than 6.00; in data set [16], 6.55; in the data set with PC-3, 6.31; in [20], 8.46; in data set [21], 7.82. This compound also came in with a clearance in data set [17] of 51 mL/min/kg. For the same compound, the Vd in [18] came to 3 L/kg. In data set [19], this compound displayed a bioavailability of 100%.

The inhibition in vivo is the relative decrease from the control value, in per cent. A word on the half-life: it is the time in which the quantity being followed falls by half. Higher therefore signals slow decline. The pIC50 is −log10 of the IC50, conventionally taken in molar units. High values mean a small IC50, low ones a large IC50. As a reminder, the clearance is a measure of how efficiently the substance is removed, as volume per time. What is called bioavailability is the share of a dose that reaches the circulation, judged against a reference dose that is usually intravenous. A higher bioavailability goes with good availability.
